Data: article PMC2686615 (International Immunology, 2009)
Where a SMILES comes first, the peptide text is derived from it.

The compounds below were run against soluble DQ8 proteins (HLA-DQ8, DQA1*0301/DQB1*0302) (Homo sapiens, UniProt P01909+P01920, A209T/A45G/C70Q/D89A/DUP78-78/E183D/E77G/F237L/G63E/H199R/I129T/K197E/L178F/L74F/L98V/Q57E/Q76R/S185I/S97I/T217I/T49S/V73L/Y58L).
Assay type: binding
In the case of CC[C@H](C)[C@H](NC(=O)[C@H](CCC(N)=O)NC(=O)[C@@H](NC(=O)[C@@H](NC(=O)[C@@H](N)CC(C)C)[C@@H](C)O)[C@@H](C)CC)C(=O)N[C@@H](CCC(=O)O)C(=O)N[C@@H](CO)C(=O)N[C@@H](C)C(=O)N[C@@H](C)C(=O)N[C@@H](CC(=O)O)C(=O)N[C@@H](CCC(N)=O)C(=O)N[C@@H](CC(=O)O)C(=O)N1CCC[C@H]1C(=O)N[C@@H](CO)C(=O)O [ZnT8 345–358] (H-LTIQIESAADQDPS-OH), the IC50 is reported as 2.5 µM.
In the case of CC[C@H](C)[C@H](NC(=O)[C@H](CCC(=O)O)NC(=O)[C@H](C)NC(=O)[C@H](CCCNC(=N)N)NC(=O)[C@H](Cc1ccc(O)cc1)NC(=O)[C@H](Cc1c[nH]c2ccccc12)NC(=O)CNC(=O)[C@H](Cc1ccccc1)NC(=O)[C@@H](NC(=O)[C@H](CC(C)C)NC(=O)[C@H](CCCNC(=N)N)NC(=O)[C@H](CCCCN)NC(=O)[C@@H](N)CO)[C@@H](C)O)C(=O)N[C@@H](CC(C)C)C(=O)O [ZnT8 128–141] (H-SKRLTFGWYRAEIL-OH), the IC50 is reported as 20.2 µM.
Compound CC[C@H](C)[C@H](NC(=O)[C@H](C)N)C(=O)N[C@@H](CC(C)C)C(=O)N[C@H](C(=O)N[C@@H](CC(=O)O)C(=O)N[C@@H](C)C(=O)N[C@@H](C)C(=O)N[C@@H](Cc1c[nH]cn1)C(=O)N[C@@H](CC(C)C)C(=O)N[C@@H](CC(C)C)C(=O)N[C@H](C(=O)N[C@@H](CC(=O)O)C(=O)N[C@@H](CC(C)C)C(=O)N[C@H](C(=O)O)[C@@H](C)O)[C@@H](C)CC)[C@@H](C)O [ZnT8 98–111] (H-AILTDAAHLLIDLT-OH) has an IC50 of 7.2 µM.
With CC[C@H](C)[C@H](NC(=O)CNC(=O)[C@@H](NC(=O)[C@@H](N)CCCNC(=N)N)[C@@H](C)O)C(=O)N[C@@H](C)C(=O)N[C@@H](CCC(N)=O)C(=O)N[C@@H](C)C(=O)N[C@@H](CC(C)C)C(=O)N[C@@H](CO)C(=O)N[C@@H](CO)C(=O)N[C@@H](Cc1ccccc1)C(=O)N[C@@H](CC(=O)O)C(=O)N[C@@H](CC(C)C)C(=O)N[C@@H](Cc1c[nH]cn1)C(=O)O [ZnT8 330–343] (H-RTGIAQALSSFDLH-OH) the IC50 was 2.5 µM.
CC[C@H](C)[C@H](NC(=O)CNC(=O)[C@H](C)NC(=O)[C@H](CCC(N)=O)NC(=O)[C@@H](NC(=O)[C@H](CCC(N)=O)NC(=O)[C@H](Cc1ccc(O)cc1)NC(=O)[C@H](CC(=O)O)NC(=O)[C@@H]1CCCN1C(=O)[C@H](Cc1ccc(O)cc1)NC(=O)[C@@H](N)CC(C)C)[C@@H](C)CC)C(=O)N[C@@H](CCSC)C(=O)N[C@H](C(=O)N[C@H](C(=O)O)[C@@H](C)O)[C@@H](C)CC [ZnT8 166–179] (H-LYPDYQIQAGIMIT-OH) gave an IC50 of 0.7 µM.
For CC[C@H](C)[C@H](NC(=O)[C@H](Cc1c[nH]cn1)NC(=O)[C@H](CC(C)C)NC(=O)[C@H](CO)NC(=O)[C@H](Cc1c[nH]cn1)NC(=O)[C@@H](NC(=O)[C@H](CO)NC(=O)[C@@H](NC(=O)[C@@H](NC(=O)CNC(=O)[C@H](CC(=O)O)NC(=O)[C@@H](NC(=O)[C@H](C)N)C(C)C)C(C)C)[C@@H](C)CC)C(C)C)C(=O)N[C@@H](Cc1c[nH]c2ccccc12)C(=O)O [ZnT8 292–305] (H-AVDGVISVHSLHIW-OH), the IC50 was 18 µM.
Work on CC[C@H](C)[C@H](N)C(=O)N[C@@H](CC(C)C)C(=O)N[C@@H](CO)C(=O)N[C@H](C(=O)N[C@@H](Cc1c[nH]cn1)C(=O)N[C@H](C(=O)N[C@@H](C)C(=O)N[C@H](C(=O)N[C@@H](C)C(=O)N[C@@H](C)C(=O)N[C@@H](CO)C(=O)N[C@@H](CCC(N)=O)C(=O)N[C@@H](CC(=O)O)C(=O)N[C@@H](CO)C(=O)O)[C@@H](C)O)C(C)C)C(C)C [ZnT8 313–326] (H-ILSVHVATAASQDS-OH) yielded an IC50 of 4.9 µM.
